Columns and labels:
[1] = 50% w/w DMSO/water, I = 0.1 M KCl, 25.0 °C; cited from earlier work
[2] = pH 7.4, CL/CM = 10, CM = 10^−6 M; cited from earlier work
[3] = biological target: T1, AChE (type VI-S, from electric eel) (Electrophorus electricus, UniProt O42275); details: read-out: TcAChE Inhibition IC50; cited from earlier work
T1 construct: purchased type VI-S

Aβ1–42 with Cu(II) [4] = biological target: T2, Aβ1–42 with Cu(II) (Homo sapiens, UniProt P05067); set-up: method as in PMID 32171933; details: copper 40 µM; footnote e; cited from earlier work
T2 construct: Aβ1–42 (40 μM) was incubated at 37 °C, for 24 h with or without Cu(II) (40 μM)
T2 sequence (P05067 672-713): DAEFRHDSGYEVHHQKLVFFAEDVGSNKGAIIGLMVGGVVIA

[5] = pH 7.4, CL/CM = 10, CM = 10^−6 M; cited from earlier work; remark: listed apart in the source
[6] = Cu(II) chelation by potentiometry; assay type: physicochemical; details: pH 7.4; read-out: conditional dissociation constant (K´d) for the copper complex
Source text: The metal chelating ability of hybrids 7 and 12, due to the BIM bidentate unity with (N,O) coordination mode, was studied by potentiometry. Figure 3A,B show a change in the deprotonation profile of the ligand titration curves due to the presence of the metal ions. In fact, the curves for the Cu(II)/L systems lie well below that of the ligand, while for the Zn(II)/L systems stay under for a > −1 (compound 7) or a > 0 (compound 12), thus supporting the formation of 1:1 and 1:2 M/L ratio complexes with the deprotonated and mono-protonated forms of the ligand and with relative metal dependent stability order (Cu > Zn). Table 1 contains the equilibrium models obtained from the fitting analysis of the potentiometric curves by program Hyperquad. In these equilibrium models, which the coordination core of the compounds integrates the bidentate (N,O) BIM moiety, MHL and MH2L2 correspond to species with the ligand containing one protonated nitrogen atom at the piperazine moiety, ML and ML2 correspond to complexes involving the completely deprotonated form of the ligand while MH-1L2 are mixed ligand-hydroxo metal complexes.
Solutions: the aqueous copper (CuCl2, 0.015 M) and zinc (ZnCl2, 0.0156 M) stock solutions for potentiometric equilibrium studies were prepared from 1000 ppm standards (Titrisol) and their metal content was evaluated by atomic absorption. The titrant solution (0.1 M KOH) was obtained from a carbonate-free commercial concentrate (Titrisol) and standardized by potentiometric titration with potassium hydrogen phthalate. The titrant solution was discarded whenever the percentage of carbonate (Gran’s method) was about 0.5% of the total amount of base.
Measurements: compounds 7 and 12 were titrated in 50% (w/w) DMSO/H2O medium, at T = 25.0 ± 0.1 °C and ionic strength (I) 0.1 M KCl, using 0.1 M KOH as titrant. Both glass and Ag/AgCl reference electrodes were previously conditioned in DMSO/H2O mixtures with increasing amounts of DMSO and the response of the glass electrode was controlled by strong acid–strong base (HCl/KOH) calibrations with the determination of the Nernst parameters by Gran’s method. […] All titrations were performed in duplicate and under the stated experimental conditions the pKw value (13.6) was determined and subsequently used in the computations. The stepwise protonation constant of the ligand, Ki = [HiL]/([Hi–1L][H]), and the overall metal–complex stability constants, βMmHhLl = [MmHhLl]/([M]^m[H]^h[L]^l), were calculated by fitting the potentiometric titration data with Hyperquad 2008 [26]. The metal hydrolysis constants were determined under the defined experimental conditions (I = 0.1 M KCl, 50% w/w DMSO/H2O, T = 25.0 ± 0.1 °C) and the following values of stability constants were included in the fitting of experimental data towards the equilibrium models related to the Cu^2+/L and Zn^2+/L systems: log βCu2H−2 = −9.99; log βZnH−2 = −14.79, log βZnH−3 = −23.48. Species distribution curves were plotted with the Hyss program.

Aβ1–42 with Cu(II) [7] = biological target: T2, Aβ1–42 with Cu(II); experiment: Inhibition of Cu-induced Aβ1–42 aggregation (thioflavin T fluorescence); assay type: biochemical
Procedure: The anti-amyloidogenic capacity of the compounds was also evaluated in vitro, in the absence and presence of Cu(II), based on the measurement of the fluorescence emission of Thioflavin T (ThT), a stain known by its Aβ fibril binding capacity. This binding interaction can be analyzed by fluorimetry, since the presence of ThT-fibrils increases the absorbance and the emission of the ThT dye, and it also induces red shifts on the absorbance (from 385 to 446 nm) and emission peaks (from 445 to 485 nm). All the measurements were performed after incubation (24 h, 37 °C) of the self-mediated and Cu^2+-induced Aβ aggregates in the presence/absence of the compounds under evaluation.
Herein, due to solubility problems of some compounds in the phosphate buffer (0.215 M, pH 8.0) of the working medium, the assays were carried out in the presence of 40 μM concentration of inhibitor and 20 μM in the case of compound 4, instead of 80 μM as previously reported. […] The activity dependence on ligand structural features may be mainly explained by the different ability for intercalation into the fibrils, as already assumed for other inhibitors. […] The data obtained for compounds 6 and 7 indicate that the presence of R1 = F, -NO2 substituents in the BIM have some small positive effect on the inhibition of Aβ aggregation.
The Aβ peptide was treated with 1,1,1,3,3,3-hexafluoropropan-2-ol (HFIP) and dissolved in a CH3CN/Na2CO3 (300 μM)/NaOH (250 μM) (48.3:48.3:4.3, v/v/v) mixture in order to have a stable stock solution, avoiding self-aggregation of Aβ1–42. Then, the prepared 500 μM solution was diluted at 40 μM in phosphate buffer (0.215 M, pH 8.0).
The solutions of the tested compounds were prepared in MeOH (1 mg/mL), being further diluted in phosphate buffer to a concentration of 480 μM. For copper-induced aggregation studies, a solution of CuCl2 240 μM was prepared from a stock standard solution (0.015 M). To perform the assays for the Aβ1–42 aggregation inhibition, a reported method, based on the fluorescence emission of thioflavin T (ThT), was followed. Aβ1–42 (40 μM) was incubated at 37 °C, for 24 h with or without Cu(II) (40 μM) in a phosphate buffer in presence or absence of the single ligand (40 μM and 20 μM for compound 4). Then, the samples were added to a 96-well plate with […] of 5 μM ThT in 50 mM glycine-NaOH (pH 8.5) buffer. Blank samples were prepared without the peptide for each concentration. The ThT fluorescence was measured at 446 nm (excitation) and 485 nm (emission). The inhibition percentage of aggregation was calculated by Equation (2), in which IFi and IF0 corresponded to the fluorescence intensities, in the presence and in the absence of the tested compound, subtracted of the fluorescence intensities due to the respective blanks.
The reported values were obtained as the mean ± SEM of duplicate of three different experiments.

Aβ1–42 = biological target: T3, Aβ1–42 (Homo sapiens, UniProt P05067); set-up: method as in PMID 32171933; details: footnote e; cited from earlier work
T3 construct: Aβ1–42 (40 μM) was incubated at 37 °C, for 24 h with or without Cu(II) (40 μM)
T3 sequence (P05067 672-713): as above

T1 sequence (O42275 24-633): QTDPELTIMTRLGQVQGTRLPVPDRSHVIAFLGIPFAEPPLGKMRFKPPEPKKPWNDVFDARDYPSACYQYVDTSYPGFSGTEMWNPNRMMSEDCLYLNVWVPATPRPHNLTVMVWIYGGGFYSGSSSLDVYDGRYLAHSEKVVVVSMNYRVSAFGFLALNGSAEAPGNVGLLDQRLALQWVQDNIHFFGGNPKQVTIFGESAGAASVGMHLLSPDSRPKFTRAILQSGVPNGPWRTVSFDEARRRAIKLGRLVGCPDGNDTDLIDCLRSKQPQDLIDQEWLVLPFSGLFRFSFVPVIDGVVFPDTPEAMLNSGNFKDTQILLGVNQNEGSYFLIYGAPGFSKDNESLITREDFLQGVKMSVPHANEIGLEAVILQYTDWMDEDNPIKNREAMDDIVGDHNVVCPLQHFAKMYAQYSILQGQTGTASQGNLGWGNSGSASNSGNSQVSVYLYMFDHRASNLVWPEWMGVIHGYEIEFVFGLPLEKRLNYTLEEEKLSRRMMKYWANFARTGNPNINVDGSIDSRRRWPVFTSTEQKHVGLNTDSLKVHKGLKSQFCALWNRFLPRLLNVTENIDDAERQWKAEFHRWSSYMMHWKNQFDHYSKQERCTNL

O=C(NCC1CCN(Cc2ccccc2)CC1)c1cccc2[nH]c(-c3ccccc3O)nc12 [Compound 5]
log K1, stepwise protonation constant (011) [1]: 8.98(2) | log K2, stepwise protonation constant (021) [1]: 7.78(4) | log K3, stepwise protonation constant (031) [1]: 2.86(5) | pCu (pM = −log[M]) [2]: 14.3 | IC50 [3]: 9 ± 1 µM | Aβ1–42 Aggregation Inhibition, Cu-Induced (Aβ1–42 with Cu(II) [4]): 58.9 ^e % | pZn (pM = −log[M]) [5]: 6.4 | Kd [6]: 0.000254 µM | increase on Cu-induced Aβ aggregation (inhibition) relative to the self-induced one (Aβ1–42 with Cu(II) [7]): more than 50% | Aβ1–42 Aggregation Inhibition, Self-Induced (Aβ1–42): 38.6 ^e %
